Experimental data as given in US12139499B2, “Heteroaryl compounds for treating Huntington's disease” (PTC THERAPEUTICS, INC., priority 2018, dated 2024).

Tested on: Endogenous Huntingtin Protein
Assay: Endogenous Huntingtin Protein Assay (ELISA-based MSD electrochemiluminescence)
Type: cell-based
Settings: Table 1
Procedure, shortened: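 Huntingtin was captured overnight at 4 °C on plates coated with 1 μg/mL MW1 (polyQ-expanded) or MAB2166 antibody and BSA-blocked. Detection used a rabbit monoclonal and then a SULFO-TAG goat anti-rabbit antibody (0.25 μg/mL, 1 h each, room temperature). Signal was read by electrochemiluminescence.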

| Structure (SMILES) | IC50 |
| --- | --- |
| Cc1cn2nc(-c3cc(F)c4nc(OC5CC(C)(C)NC(C)(C)C5)sc4c3)cc(C)c2n1 [Compound 133, 6-{4-fluoro-2-[(2,2,6,6-tetramethylpiperidin-4-yl)oxy]-1,3-benzothiazol-6-yl}-2,8-dimethylimidazo[1,2-b]pyridazine] | ≤ 100 nM |
| Cc1cc(-c2cc(O)c3nc(C4CCNCC4)sc3c2)cc2cn(C)nc12 [Compound 134, 6-(2,7-dimethyl-2H-indazol-5-yl)-2-(piperidin-4-yl)-1,3-benzothiazol-4-ol] | 100 to 500 nM |
| Cc1cn2nc(-c3cc(F)c4nc(OC5CC(C)NC(C)C5)sc4c3)cc(C)c2n1 (centres unmarked) [Compound 135, 6-{2-[(2,6-dimethylpiperidin-4-yl)oxy]-4-fluoro-1,3-benzothiazol-6-yl}-2,8-dimethylimidazo[1,2-b]pyridazine] | ≤ 100 nM |
| Cc1nc2ccc(-c3cc4sc(N(C)C5CC(C)(C)NC(C)(C)C5)nc4cn3)cn2n1 [Compound 136, N-methyl-6-(2-methyl[1,2,4]triazolo[1,5-a]pyridin-6-yl)-N-(2,2,6,6-tetramethylpiperidin-4-yl)[1,3]thiazolo[4,5-c]pyridin-2-amine] | 100 to 500 nM |
| CN(c1nc2cnc(-c3ccc(-c4cn[nH]c4)cc3O)cc2s1)C1CC(C)(C)NC(C)(C)C1 [Compound 137, 2-{2-[methyl(2,2,6,6-tetramethylpiperidin-4-yl)amino][1,3]thiazolo[4,5-c]pyridin-6-yl}-5-(1H-pyrazol-4-yl)phenol] | 3000 to 9000 nM |
| Cc1cn2cc(-c3ccc4nc(N(C)C5CC(C)(C)NC(C)(C)C5)sc4c3)cc(C#N)c2n1 [Compound 138, 2-methyl-6-{2-[methyl(2,2,6,6-tetramethylpiperidin-4-yl)amino]-1,3-benzothiazol-6-yl}imidazo[1,2-a]pyridine-8-carbonitrile] | ≤ 100 nM |
| Cc1cn2nc(-c3ccc4nc(C5CCNCC5)sc4c3)cc(C)c2n1 [Compound 139, 2,8-dimethyl-6-[2-(piperidin-4-yl)-1,3-benzothiazol-6-yl]imidazo[1,2-b]pyridazine] | ≤ 100 nM |
| CN(c1nc2ncc(-c3cc(C#N)c4nn(C)cc4c3)nc2s1)C1CC(C)(C)NC(C)(C)C1 [Compound 140, 2-methyl-5-{2-[methyl(2,2,6,6-tetramethylpiperidin-4-yl)amino][1,3]thiazolo[4,5-b]pyrazin-6-yl)-2H-indazole-7-carbonitrile] | ≤ 100 nM |
| Cc1cn2nc(-c3cnc4nc(N(C)C5CC(C)(C)NC(C)(C)C5)sc4n3)ccc2n1 [Compound 141, N-methyl-6-(2-methylimidazo[1,2-b]pyridazin-6-yl)-N-(2,2,6,6-tetramethylpiperidin-4-yl)[1,3]thiazolo[4,5-b]pyrazin-2-amine] | ≤ 100 nM |
| CN(c1nc2cnc(-c3ccc(-c4cn[nH]c4)cc3O)nc2s1)C1CC(C)(C)NC(C)(C)C1 [Compound 142, 2-{2-[methyl(2,2,6,6-tetramethylpiperidin-4-yl)amino][1,3]thiazolo[5,4-d]pyrimidin-5-yl}-5-(1H-pyrazol-4-yl)phenol] | 100 to 500 nM |
| Cc1cn2nc(-c3cc(F)c4nc(N5CCC(O)CC5)sc4c3)cc(C)c2n1 [Compound 143, 1-[6-(2,8-dimethylimidazo[1,2-b]pyridazin-6-yl)-4-fluoro-1,3-benzothiazol-2-yl]piperidin-4-ol] | 100 to 500 nM |
| Cc1cn2nc(-c3cc(F)c4nc(C5CCN[C@H](C)C5)sc4c3)ccc2n1 (stereo partly drawn) [Compound 144, 6-{4-fluoro-2-[(2R)-2-methylpiperidin-4-yl]-1,3-benzothiazol-6-yl}-2-methylimidazo[1,2-b]pyridazine] | ≤ 100 nM |
| COc1cc(-c2cc(F)c3nc(C4=CCNCC4)sc3c2)nn2cc(C)nc12 [Compound 145, 6-[4-fluoro-2-(1,2,3,6-tetrahydropyridin-4-yl)-1,3-benzothiazol-6-yl]-8-methoxy-2-methylimidazo[1,2-b]pyridazine] | ≤ 100 nM |
| Cc1cc(-c2ccc3nc(N(C)C4CCNC(C)(C)C4)sc3c2)cc2cn(C)nc12 (centres unmarked) [Compound 146, 6-(2,7-dimethyl-2H-indazol-5-yl)-N-(2,2-dimethylpiperidin-4-yl)-N-methyl-1,3-benzothiazol-2-amine] | 100 to 500 nM |
